{
  "source": "patent US20250000910A1",
  "about": "“Methods of Improving Therapeutic Efficacy of Mesenchymal Stromal Cells for Treatment of Osteoarthritis” (Georgia Tech Research Corporation, priority 2021, published 2025)",
  "assay_type_in_all_cases": "cell-based, human",
  "key": {"[1]": {"tested_on": "more therapeutic hMSCs (donors M1 and M2)", "test": "Cytokine secretion of more therapeutic hMSCs after pharmacological intervention (Luminex 41 Plex, PLSDA)", "conditions": "for overall paracrine (cytokine) signaling response / secretion of therapeutic related cytokines (GM-CSF, GRO, IL-4, PDGF-AA): donors M1 and M2, +IL-1β 24 hr, vs CTRL", "experimental": "(§1) Loaded samples (2.03 μL) were determined to be within the linear range of detection of the […] Millipore Corporation) system. Cytokines were quantified using a bead based multiplex immunoassay, Luminex Cytokine/Chemokine 41 Plex Immunomodulatory Kit ([…] Millipore Corporation). […] PLSDA was performed in MATLAB (Mathworks) using a function written by Cleiton Nunes (Mathworks File Exchange). This approach accounts for the multivariate nature of the data without overfitting. Prior to inputting the data into the algorithm, all data was z-scored [(observed-mean)/SD]. Intracellular signaling phospho-proteins and cytokine media read outs were used as the independent variables and the different hMSC donor's treatment conditions were used as the outcome variables. LVs in a multidimensional space (dimensionality varied by number of independent input variables) were defined and the two primary LVs were used for orthogonal rotation to best separate groups in the new plane defined by LV1 and LV2 (FIGS. 5a-5c). • Statistical Analysis"}, "p-Akt": {"tested_on": "p-Akt", "test": "hMSC intracellular signaling analysis, Akt/mTOR phosphoprotein 11-plex", "text": "Millipore Corporation) system."}, "[2]": {"tested_on": "less therapeutic hMSCs (donors L1 and L2)", "test": "Cytokine secretion of less therapeutic hMSCs after pharmacological intervention (Luminex 41 Plex, PLSDA)", "conditions": "vs CTRL", "experimental": "as §1"}},
  "note": "“Also recorded” adds a separate entry of the source.",
  "data": [
    {"smiles": "Cc1cc(N2CCOCC2)cc2[nH]c(-c3c(NC[C@@H](O)c4cccc(Cl)c4)cc[nH]c3=O)nc12", "note": "[BMS-536924]", "values": [
      {"measurement": "overall paracrine (cytokine) signaling response", "setting": "[1]", "value": "reduced overall paracrine signaling response"},
      {"measurement": "secretion of therapeutic related cytokines (GM-CSF, GRO, IL-4, PDGF-AA)", "setting": "[1]", "value": "no effect"}
    ]},
    {"smiles": "C[S+]([O-])c1ccc(-c2nc(-c3ccncc3)c(-c3ccc(F)cc3)[nH]2)cc1", "note": "(stereo not drawn) [SB203580]", "values": [
      {"measurement": "secretion of therapeutic related cytokines (GM-CSF, GRO, IL-4, PDGF-AA)", "setting": "[1]", "value": "reduced cytokine secretion of the therapeutic related cytokines"}
    ]},
    {"smiles": "NC1(c2ccc(-c3nc4ccn5c(=O)[nH]nc5c4cc3-c3ccccc3)cc2)CCC1", "note": "[MK-2206]", "values": [
      {"measurement": "p-Akt phospho-protein levels relative to CTRL", "setting": "p-Akt; less therapeutic hMSC donor L2, combination Metformin and MK-2206, +IL-1β", "value": "significantly (p<0.01) less p-Akt phospho-protein levels; also recorded: decreased p-Akt signaling"},
      {"measurement": "secretion of therapeutic related cytokines (GM-CSF, GRO, IL-4, PDGF-AA)", "setting": "[2]; donors L1 and L2, +IL-1β 24 hr", "value": "no effect"},
      {"measurement": "secretion of nonspecific cytokines", "setting": "[2]; donors L1 and L2, +IL-1β", "value": "distinct reductions in nonspecific cytokines"}
    ]},
    {"smiles": "CCOC(=O)C1=C(N)Oc2ccc(Cl)cc2C1C(C#N)C(=O)OCC", "note": "(stereo not drawn) [SC79]", "values": [
      {"measurement": "secretion of nonspecific cytokines", "setting": "[1]; donors M1 and M2, +IL-1β", "value": "potentiated secretion of nonspecific cytokines"},
      {"measurement": "shift of paracrine signaling profile (PLSDA)", "setting": "[1]; donors M1 and M2, +IL-1β", "value": "clear qualitative shift in the paracrine signaling profiles"},
      {"measurement": "overall paracrine (cytokine) signaling response", "setting": "[1]", "value": "the greatest potentiation of paracrine signaling"},
      {"measurement": "secretion of therapeutic related cytokines (GM-CSF, GRO, IL-4, PDGF-AA)", "setting": "[1]", "value": "no effect"},
      {"measurement": "p-Akt phospho-protein levels relative to CTRL", "setting": "p-Akt; more therapeutic hMSC donor M2, combination SP600125 and SC79, +IL-1β", "value": "significantly (p<0.001) more p-Akt phospho-protein levels; also recorded: increased p-Akt signaling"}
    ]},
    {"smiles": "CO[C@H]1C[C@@H]2CC[C@@H](C)[C@@](O)(O2)C(=O)C(=O)N2CCCC[C@H]2C(=O)O[C@H]([C@H](C)C[C@@H]2CC[C@@H](O)[C@H](OC)C2)CC(=O)[C@H](C)/C=C(\\C)[C@@H](O)[C@@H](OC)C(=O)[C@H](C)C[C@H](C)/C=C/C=C/C=C/1C", "note": "[Rapamycin]", "values": [
      {"measurement": "secretion of therapeutic related cytokines (GM-CSF, GRO, IL-4, PDGF-AA)", "setting": "[1]", "value": "no effect"}
    ]}
  ]
}
